Data as given in PubChem BioAssay (NCI).
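Tested at 5 concentrations; 48 h exposure; 96-well plates; endpoints linearly interpolated, else capped at highest concentration. Definition used: TGI = concentration required for complete inhibition of growth.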

Assays:
Test in all cases: growth of human tumour cells (NCI), 48 h
[1] = tested on: 786-0 renal
[2] = tested on: A549 NSCLC
[3] = tested on: ACHN renal
[4] = tested on: CCRF-CEM leukemia
[5] = tested on: DLD-1 colon
[6] = tested on: DMS 114 small cell lung
[7] = tested on: DMS 273 small cell lung
[8] = tested on: HCT-116 colon
[9] = tested on: HCT-15 colon
[10] = tested on: HL-60(TB) leukemia
[11] = tested on: HOP-18 NSCLC
[12] = tested on: HT29 colon
[13] = tested on: IGROV1 ovarian
[14] = tested on: K-562 leukemia
[15] = tested on: KM12 colon
[16] = tested on: LOX IMVI melanoma
[17] = tested on: LXFL 529 NSCLC
[18] = tested on: M14 melanoma
[19] = tested on: M19-MEL melanoma
[20] = tested on: MALME-3M melanoma
[21] = tested on: MOLT-4 leukemia
[22] = tested on: NCI-H226 lung
[23] = tested on: NCI-H23 lung
[24] = tested on: NCI-H460 lung
[25] = tested on: NCI-H522 lung
[26] = tested on: OVCAR-3 ovarian
[27] = tested on: OVCAR-4 ovarian
[28] = tested on: OVCAR-8 ovarian
[29] = tested on: RXF 393 renal
[30] = tested on: SF-268 CNS
[31] = tested on: SF-295 CNS
[32] = tested on: SF-539 CNS
[33] = tested on: SK-MEL-2 melanoma
[34] = tested on: SK-MEL-28 melanoma
[35] = tested on: SK-MEL-5 melanoma
[36] = tested on: SK-OV-3 ovarian
[37] = tested on: SN12C renal
[38] = tested on: SNB-19 CNS
[39] = tested on: SNB-75 CNS
[40] = tested on: SNB-78 CNS
[41] = tested on: TK-10 renal
[42] = tested on: UACC-257 melanoma
[43] = tested on: UACC-62 melanoma
[44] = tested on: UO-31 renal

Measured: TGI

CCOP12(OCC)NC(=O)OC1(C(F)(F)F)c1ccccc1O2 (centres undefined)
> 100 µM: all assays above
